Measured values from patent publication US11180462B2, “Microbiocidal oxadiazole derivatives” (SYNGENTA PARTICIPATIONS AG, priority 2015, dated 2021).

Columns and labels:
[1] = system: Puccinia recondita f. Sp. Tritici; experiment: Fungicidal activity against Puccinia recondita f. sp. tritici / wheat / leaf disc preventative (brown rust); assay type: in vivo; settings: foliar, 200 ppm in the applied formulation, wheat leaf segments, preventative, compared to untreated control leaf disks, read-out: disease control
In short: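 Compound application precedes infection: segments of wheat cv. Kanzler, sprayed at 200 ppm, are inoculated with a spore suspension after 1 day. Incubation is at 19° C. with 75% relative humidity and 12 h light/12 h darkness, and control versus untreated leaves is rated 7 to 9 days post-application.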

[2] = system: Puccinia recondita f. Sp. Tritici; experiment: Fungicidal activity against Puccinia recondita f. sp. tritici / wheat / leaf disc curative (brown rust); assay type: in vivo; settings: foliar, 24 h, 200 ppm in the applied formulation, wheat leaf segments, curative (applied 1 day after inoculation), compared to untreated control leaf disks, read-out: disease control
In short: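 % disease control vs untreated, scored 6–8 d post-application. Wheat cv. Kanzler segments, spore-inoculated, dark 19° C/75% RH; formulated cpd applied 1 d post-inoc; then 19° C, 75% RH, 12 h L/12 h D.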

Phakopsora Pachyrhizi = experiment: Fungicidal activity against Phakopsora pachyrhizi / soybean / leaf disc preventative (Asian soybean rust); assay type: in vivo; settings: foliar, 200 ppm in the applied formulation, soybean leaf disks, compared to untreated control leaf disks, read-out: disease control
In short: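 Preventative soybean leaf-disc test: discs on water agar sprayed with diluted formulated compound, inoculated one day later with spores on the lower surface. Held 24–36 h dark at 20°C, 75% rh, then 12 h light/day; percent disease control versus untreated discs scored 12–14 days after application.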

[3] = system: Glomerella lagenarium (Colletotrichum lagenarium); experiment: Fungicidal activity against Glomerella lagenarium (Colletotrichum lagenarium) liquid culture / cucumber / preventative (anthracnose); assay type: cell-based; settings: Colletotrichum orbiculare; 20 ppm in the applied formulation; liquid culture (PDB), growth inhibition measured photometrically after 3 to 4 days; compared to untreated control; read-out: disease control
In short: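 Photometric read-out of fungal growth after 2–7 days, expressed as percent antifungal activity versus untreated check. Cryo-stored conidia in PDB; compound at 20 ppm; dark, 24 °C, 96% RH.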

C=CCN(Cc1ccc(-c2noc(C(F)(F)F)n2)cc1)C(=O)C1CC1(F)F (stereo not shown) [Compound 1.484, N-allyl-2,2-difluoro-N-[[4-[5-(trifluoromethyl)-1,2,4-oxadiazol-3-yl]phenyl]methyl]-cyclopropane-carboxamide]
≥ 80%: pest or weed control at 200 ppm [1] | pest or weed control at 200 ppm [2] | pest or weed control at 200 ppm (Phakopsora Pachyrhizi) | inhibition of growth at 20 ppm [3]

CON(Cc1ccc(-c2noc(C(F)(F)F)n2)cc1)C(=O)C(C)(C)C [Compound 1.42, N-methoxy-2,2-dimethyl-N-[[4-[5-(trifluoromethyl)-1,2,4-oxadiazol-3-yl]phenyl]methyl]-propanamide]
≥ 80%: pest or weed control at 200 ppm [1] | pest or weed control at 200 ppm [2] | pest or weed control at 200 ppm (Phakopsora Pachyrhizi) | inhibition of growth at 20 ppm [3]

COCCC(=O)N(Cc1ccc(-c2noc(C(F)(F)F)n2)cc1)CC1CC1 [Compound 1.217, N-(cyclopropylmethyl)-3-melhoxy-N-[[4-[5-(trifluoromethyl)-1,2,4-oxadiazol-3-yl]phenyl]methyl]-propanamide]
≥ 80%: pest or weed control at 200 ppm [1] | pest or weed control at 200 ppm [2] | pest or weed control at 200 ppm (Phakopsora Pachyrhizi) | inhibition of growth at 20 ppm [3]

CCN(Cc1ccc(-c2noc(C(F)(F)F)n2)cc1)C(=O)CC#N [Compound 1.510, 2-cyano-N-ethyl-N-[[4-[5-(trifluoromethyl)-1,2,4-oxadiazol-3-yl]phenyl]methyl]-acetamide]
≥ 80%: pest or weed control at 200 ppm [1] | pest or weed control at 200 ppm [2] | pest or weed control at 200 ppm (Phakopsora Pachyrhizi) | inhibition of growth at 20 ppm [3]

CC(C)C(=O)N(Cc1ccc(-c2noc(C(F)(F)F)n2)cc1)CC(F)(F)F [Compound 1.689, 2-methyl-N-(2,2,2-trifluoroethyl)-N-[[4-[5-(trifluoromethyl)-1,2,4-oxadiazol-3-yl]phenyl]methyl]-propanamide]
≥ 80%: pest or weed control at 200 ppm [1] | pest or weed control at 200 ppm [2] | pest or weed control at 200 ppm (Phakopsora Pachyrhizi) | inhibition of growth at 20 ppm [3]

C#CCN(Cc1ccc(-c2noc(C(F)(F)F)n2)cc1)C(=O)CCC(F)(F)F [Compound 1.169, 4,4,4-trifluoro-N-prop-2-ynyl-N-[[4-[5-(trifluoromethyl)-1,2,4-oxadiazol-3-yl]phenyl]methyl]-butanamide]
≥ 80%: pest or weed control at 200 ppm [1] | pest or weed control at 200 ppm [2] | pest or weed control at 200 ppm (Phakopsora Pachyrhizi) | inhibition of growth at 20 ppm [3]

CC(C)N(Cc1ccc(-c2noc(C(F)(F)F)n2)cc1)C(=O)C1CC1(F)F (stereo not shown) [Compound 1.671, 2,2-difluoro-N-isopropyl-N-[[4-[5-(trifluoromethyl)-1,2,4-oxadiazol-3-yl]phenyl]methyl]-cyclopropane-carboxamide]
≥ 80%: pest or weed control at 200 ppm [1] | pest or weed control at 200 ppm [2] | pest or weed control at 200 ppm (Phakopsora Pachyrhizi) | inhibition of growth at 20 ppm [3]

CCCC(=O)N(CCOC)Cc1ccc(-c2noc(C(F)(F)F)n2)cc1 [Compound 1.329, N-(2-methoxyethyl)-N-[[4-[5-(trifluoromethyl)-1,2,4-oxadiazol-3-yl]phenyl]methyl]-butanamide]
≥ 80%: pest or weed control at 200 ppm [1] | pest or weed control at 200 ppm [2] | pest or weed control at 200 ppm (Phakopsora Pachyrhizi) | inhibition of growth at 20 ppm [3]

C#CCN(Cc1ccc(-c2noc(C(F)(F)F)n2)cc1)C(=O)C1CC1C (stereo not shown) [Compound 1.181, 2-methyl-N-prop-2-ynyl-N-[[4-[5-(trifluoromethyl)-1,2,4-oxadiazol-3-yl]phenyl]methyl]-cyclopropane-carboxamide]
≥ 80%: pest or weed control at 200 ppm [1] | pest or weed control at 200 ppm [2] | pest or weed control at 200 ppm (Phakopsora Pachyrhizi) | inhibition of growth at 20 ppm [3]

CON(C(=O)C1CC1F)C(C)c1ccc(-c2noc(C(F)(F)F)n2)cc1 (stereo not shown) [Compound 1.275, 2-fluoroN-methoxy-N-[1-[4-[5-(trifluoromethyl)-1,2,4-oxadiazol-3-yl]phenyl]ethyl]-cyclopropane-carboxamide]
≥ 80%: pest or weed control at 200 ppm [1] | pest or weed control at 200 ppm [2] | pest or weed control at 200 ppm (Phakopsora Pachyrhizi) | inhibition of growth at 20 ppm [3]

CCCN(Cc1ccc(-c2noc(C(F)(F)F)n2)cc1)C(=O)CC [Compound 1.573, N-propyl-N-[[4-[5-(trifluoromethyl)-1,2,4-oxadiazol-3-yl]phenyl]methyl]-propanamide]
≥ 80%: pest or weed control at 200 ppm [1] | pest or weed control at 200 ppm [2] | pest or weed control at 200 ppm (Phakopsora Pachyrhizi) | inhibition of growth at 20 ppm [3]

CON(Cc1ccc(-c2noc(C(F)(F)F)n2)cc1)C(=O)C(C)CC(C)=O (stereo not shown) [Compound 1.22, N-methoxy-2-methyl-4-oxo-N-[[4-[5-(trifluoromethyl)-1,2,4-oxadiazol-3-yl]phenyl]methyl]-pentanamide]
≥ 80%: pest or weed control at 200 ppm [1] | pest or weed control at 200 ppm [2] | pest or weed control at 200 ppm (Phakopsora Pachyrhizi) | inhibition of growth at 20 ppm [3]

CC1(C(=O)N(CCO)Cc2ccc(-c3noc(C(F)(F)F)n3)cc2)CC1 [Compound 1.718, N-(2-hydroxyethyl)-1-methyl-N-[[4-[5-(trifiuoromethyl)-1,2,4-oxadiazol-3-yl]phenyl]methyl]-cyctopropane-carboxamide]
≥ 80%: pest or weed control at 200 ppm [1] | pest or weed control at 200 ppm [2] | pest or weed control at 200 ppm (Phakopsora Pachyrhizi) | inhibition of growth at 20 ppm [3]

N#Cc1ccc(CC(=O)N(Cc2ccc(-c3noc(C(F)(F)F)n3)cc2)C2CC2)cc1 [Compound 1.130, 2-(4-cyanophenyl)-N-cyclopropyl-N-[[4-[5-(trifluoromethyl)-1,2,4-oxadiazol-3-yl]phenyl]methyl]-acetamide]
≥ 80%: pest or weed control at 200 ppm [1] | pest or weed control at 200 ppm [2] | pest or weed control at 200 ppm (Phakopsora Pachyrhizi) | inhibition of growth at 20 ppm [3]

CCC(C)N(Cc1ccc(-c2noc(C(F)(F)F)n2)cc1)C(=O)C1OCCO1 (stereo not shown) [Compound 1.403, N-sec-butyl-N-[[4-[5-(trifluoromethyl)-1,2,4-oxadiazol-3-yl]phenyl]methyl]-1,3-dioxolane-2-carboxamide]
≥ 80%: pest or weed control at 200 ppm [1] | pest or weed control at 200 ppm [2] | pest or weed control at 200 ppm (Phakopsora Pachyrhizi) | inhibition of growth at 20 ppm [3]

C#CCN(Cc1ccc(-c2noc(C(F)(F)F)n2)cc1)C(=O)CC [Compound 1.185, N-prop-2-ynyl-N-[[4-[5-(trifluoromethyl)-1,2,4-oxadiazol-3-yl]phenyl]methyl]-propanamide]
≥ 80%: pest or weed control at 200 ppm [1] | pest or weed control at 200 ppm [2] | pest or weed control at 200 ppm (Phakopsora Pachyrhizi) | inhibition of growth at 20 ppm [3]
